# Experimental data published in patent US20090099167A1, “Organic compounds” (Novartis Institutes for Biomedical Research, priority 2004, published 2009).
# pIC50: −log10 of the molar value.
# Target: T1, c-Kit (Homo sapiens, UniProt P10721)
# T1 construct: whole cytoplasmic domain of c-Kit (aa 544-976); made in house; host or cells: Sf9 or High Five (baculovirus)
# Assay: c-kit kinase inhibition
# Format: biochemical
# Conditions: Table 4
# T1 sequence (P10721 544-976): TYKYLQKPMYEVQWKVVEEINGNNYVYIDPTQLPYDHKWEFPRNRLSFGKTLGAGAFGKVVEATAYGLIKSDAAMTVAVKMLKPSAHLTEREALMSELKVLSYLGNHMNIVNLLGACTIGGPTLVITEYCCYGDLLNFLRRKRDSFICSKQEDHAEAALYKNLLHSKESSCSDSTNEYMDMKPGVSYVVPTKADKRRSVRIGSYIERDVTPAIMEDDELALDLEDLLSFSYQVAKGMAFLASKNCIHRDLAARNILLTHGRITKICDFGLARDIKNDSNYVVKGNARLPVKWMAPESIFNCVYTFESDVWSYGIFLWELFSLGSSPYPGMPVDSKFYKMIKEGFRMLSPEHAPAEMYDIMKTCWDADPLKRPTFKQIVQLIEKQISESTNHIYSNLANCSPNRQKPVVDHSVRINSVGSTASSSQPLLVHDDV
row,pIC50,SMILES
1,> 5.00,"CN1CCN(c2ccc(-c3cnn4c(N)c(-c5ccsc5)cnc34)cc2)CC1 [Example 21, 3-[4-(4-Methyl-piperazin-1-yl)-phenyl]-6-thiophen-3-yl-pyrazolo[1,5-a]pyrimidin-7-ylamine]"
2,> 5.00,"COc1cccc(-c2cnc3c(-c4cccc(N5CCN(C)CC5)c4)cnn3c2N)c1 [Example 24, 6-(3-Methoxy-phenyl)-3-[3-(4-methyl-piperazin-1-yl)-phenyl]-pyrazolo[1,5-a]pyrimidin-7-ylamine]"
